# Source: US8058243B2, “Method for treating a brain cancer with ifenprodil” (HSC Research and Development Limited Partnership, priority 2006, dated 2011)
# Where a name gives a salt, the structure may show the parent alone. Read-outs that look alike come from different tables or passages of the source.
# Test system: murine neural precursor cells (neurosphere cultures)
# Assay: HTS of LOPAC library against secondary neurosphere cultures, MTT proliferation assay at 3 μM, day 7 (z score, P value)
# Format: cell-based, mouse
# [1] = LOPAC primary screen, neurosphere MTT proliferation, 3 μM, day 7
# [2] = yes = significantly inhibited neurosphere proliferation (P<0.01) in the primary screen
# [3] = LOPAC library screen at 3 μM, secondary neurosphere cultures, MTT
# [4] = LOPAC screen, neurosphere MTT proliferation, 3 μM, day 7
# [5] = yes/no: significantly inhibited neurosphere proliferation (P<0.01) in primary screen
# [6] = yes/no: significantly inhibited neurosphere proliferation in primary screen
# [7] = LOPAC library screen, 3 μM, MTT, secondary neurosphere cultures, day 7
# [8] = primary LOPAC screen, 3 μM, MTT, neurosphere proliferation
# [9] = yes/no: significantly inhibited neurosphere proliferation in the primary screen
# [10] = yes/no: significantly inhibited neurosphere proliferation (P<0.01) in the primary screen
# [11] = LOPAC library screen, 3 μM, MTT, neurosphere cultures
compound,measurement,setting,value
CC(C)c1ccc2c(c1)c(SC(C)(C)C)c(CC(C)(C)C(=O)O)n2Cc1ccc(Cl)cc1 [MK-886],Z Score,,−1.549
same,Z score,[1],−1.549
same,Activity,[2],no
CCCCCCCCCC(=O)NC(CN1CCOCC1)[C@H](O)c1ccccc1.Cl (stereo partly shown),Z Score,[3],−1.109
"O=[N+]([O-])c1cc(O)c(O)c([N+](=O)[O-])c1 [3,5-Dinitrocatechol]",Z Score,,−0.5294
same,Z score,[4],−0.529
same,Activity,[5],no
CCN(CC)CCCCCCCCOC(=O)c1cc(OC)c(OC)c(OC)c1.Cl [TMB-8 hydrochloride],Z Score,,1.707
same,Z score,[1],1.707
same,Activity,[2],no
"Brc1c(NC2=NCCN2)ccc2nccnc12 [UK 14,304]",Activity,,no
same,Z Score,,−0.2103
same,Z score,,−0.210
Oc1ccc(C=Cc2cc(O)cc(O)c2)cc1 [Resveratrol],Z Score,[3],−0.2295
same,Z score,[1],−0.230
same,Activity,[6],no
Cl.OC1CCCCC1N1CCC(c2ccccc2)CC1 (stereo not shown) [(B1)-Vesamicol hydrochloride],Z Score,,−1.967
Cc1ccccc1N1C(=O)c2cc(S(N)(=O)=O)c(Cl)cc2NC1C (stereo not shown) [Metolazone],Z Score,[7],−8.113
same,Z score,[1],−8.113
same,Activity,[2],yes
L(−)-Norepinephrine bitartrate,Z Score,[7],−1.418
same,Z score,[8],−1.418
same,Activity,[9],no
CC(N)Cc1c[nH]c2ccc(OCc3cccs3)cc12 (stereo not shown) [BW 723C86],Z Score,,0.7247
same,Z score,[4],0.725
same,Activity,[5],no
C=CC1=C(C)c2cc3[nH]c(cc4nc(cc5[nH]c(cc1n2)c(C)c5CCC(=O)O)C(CCC(=O)O)=C4C)c(C)c3C=C [Protoporphyrin IX disodium],Z Score,"168 h, 3 µM",−3.441
same,Z score,"168 h, 3 µM",−3.441
same,Activity,[2],yes
CCCN1CCC[C@@H]2Cc3nc(N)ncc3C[C@H]21 [Quinelorane dihydrochloride],Z score,[1],−1.567
same,Activity,[6],no
Cl.c1ccc2nc(C3=NCCN3)ccc2c1 [BU224 hydrochloride],Z Score,,0.4045
same,Z score,[4],0.404
same,Activity,[5],no
O=C(CCCN1CCC(O)(c2cccc(C(F)(F)F)c2)CC1)c1ccc(F)cc1 [Trifluperidol hydrochloride],Z Score,[7],−1.621
same,Z score,[8],−1.621
same,Activity,[9],no
O=c1c(-c2ccc(O)cc2)coc2cc(O)ccc12 [Daidzein],Z Score,[7],−2.931
same,Z score,[1],−2.931
same,Activity,[10],yes
R(−)-Me5,Z Score,,−1.414
same,Z score,[1],−1.414
same,Activity,[2],no
CCCCCCCCCC[Si](C)(C)CCC(=O)NC(Cc1ccc(C)cc1)c1ccccc1 (stereo not shown) [Sandoz 58-035],Z Score,[11],0.3325
same,Z score,[8],0.332
same,Activity,[9],no
N[C@@H](CC(=O)O)C(=O)O [L-Aspartic acid],Activity,,no
same,Z Score,"168 h, 3 µM",0.1632
same,Z score,"168 h, 3 µM",0.163
CCNC(=O)N1CCN(CCCC(c2ccc(F)cc2)c2ccc(F)cc2)CC1 [Amperozide hydrochloride],Z Score,"168 h, 3 µM",−0.4126
same,Z score,"168 h, 3 µM",−0.413
same,Activity,[2],no
CC(C)C[C@H](NC(=O)[C@@H](O)[C@H](N)Cc1ccccc1)C(=O)O [Bestatin hydrochloride],Z Score,[11],0.6432
same,Z score,[4],0.643
same,Activity,[5],no
"CC(C)(C)C1(O)CCN2CC3c4ccccc4CCc4cccc(c43)C2C1.Cl (single isomer, unassigned; (+)) [(+)-Butaclamol hydrochloride]",Z Score,[7],−11.27
same,Z score,[1],−11.274
same,Activity,[10],yes
N=C(N)NN [Aminoguanidine hydrochloride],Z Score,[11],−0.000731
same,Z score,[8],−0.001
same,Activity,[9],no
COc1cc(C(O)CN)ccc1O.Cl (stereo not shown) [(B1)-Normetanephrine hydrochloride],Z Score,[7],−1.796
COc1cc2c(CCNC(C)=O)c[nH]c2cc1Cl [6-Chloromelatonin],Z Score,[7],−1.659
same,Z score,[4],−1.659
same,Activity,[5],no
COc1ccc2[nH]c3c(c2c1)CCNC3,Z score,[1],−2.661
same,Activity,[2],yes
"Cl.c1ccc(CN2CCC3(CCCc4ccccc43)CC2)cc1 [L-687,384 hydrochloride]",Z Score,,−9.156
same,Z score,[1],−9.156
same,Activity,[2],yes
Cl.NCCNC(=O)c1ccc(Cl)cc1 [Ro 16-6491 hydrochloride],Z Score,,−2.181
same,Z score,[1],−2.181
same,Activity,[6],no
O=C1C=CC(=O)C=C1 [p-Benzoquinone],Activity,,no
same,Z Score,[7],−1.571
same,Z score,[8],−1.571
O=c1onc2n1-c1cc(Br)ccc1OC2 [NS 2028],Z Score,,−2.684
same,Z score,[1],−2.684
same,Activity,[2],yes
Oc1ccc(O)cc1 [Hydroquinone],Z Score,[11],0.428
same,Z score,[1],0.428
same,Activity,[5],no
C=CC[N+](C)(C)c1ccc(CCC(=O)CCc2ccc([N+](C)(C)CC=C)cc2)cc1.[Br-].[Br-] [BW 284c51],Z Score,,−0.4017
same,Z score,[8],−0.402
same,Activity,[9],no
Cn1c(=O)c2c(ncn2C)n(C)c1=O [Caffeine],Z Score,[11],0.4113
same,Z score,[4],0.411
CC(C)NCC(O)c1ccc(NS(C)(=O)=O)cc1.Cl (racemic) [(±)-Sotalol hydrochloride],Z score,[1],−0.813
same,Activity,[6],no
COc1[nH]c2ccc(F)cc2c1C(=O)OCC1CCN(CCNS(C)(=O)=O)CC1.NS(=O)(=O)O [GR 125487 sulfamate salt],Z Score,[3],−0.1942
same,Z score,[1],−0.194
same,Activity,[5],no
O=C(O)C1=CCNCC1 [Isoguvacine hydrochloride],Z Score,[7],−2.22
same,Z score,[1],−2.220
same,Activity,[5],no
Oc1ccc2c3c1O[C@H]1c4[nH]c5c(c4C[C@@]4(O)[C@@H](C2)N(CC2CC2)CC[C@]314)C[C@@]1(O)[C@H]2Cc3ccc(O)c4c3[C@@]1(CCN2CC1CC1)[C@H]5O4 [nor-Binaltorphimine dihydrochloride],Z Score,,0.3881
same,Z score,[1],0.388
same,Activity,[2],no
CCCCCCCC/C=C\CCCCCCCC(=O)NCCO [N-Oleoylethanolamine],Z Score,"168 h, 3 µM",−0.4116
same,Z score,"168 h, 3 µM",−0.412
same,Activity,[6],no
COc1ccccc1N1CCN(CCCCNC(=O)c2ccc3ccccc3c2)CC1 [BP 897],Z Score,"168 h, 3 µM",−1.715
same,Z score,"168 h, 3 µM",−1.715
same,Activity,[5],no
O=C(N[C@@H](Cc1ccccc1)C(=O)CCl)OCc1ccccc1 [Z-L-Phe chloromethyl ketone],Z Score,,−2.901
same,Z score,[1],−2.901
same,Activity,[10],yes
Cl.Oc1cc2c(cc1O)C(c1ccccc1)CNCC2 (racemic) [(±)-SKF-38393 hydrochloride],Activity,,no
same,Z score,[4],1.280
Nc1nc2c(ncn2COCCO)c(=O)[nH]1 [Acyclovir],Z Score,[3],−1.215
same,Z score,[1],−1.215
same,Activity,[10],no
CC(Cc1ccc(O)cc1)NCC(O)c1cc(O)cc(O)c1 (stereo not shown) [Fenoterol hydrobromide],Z Score,,−1.841
same,Z score,[1],−1.841
same,Activity,[5],no
CNCC(O)c1ccc(O)c(O)c1.Cl (stereo not shown) [(B1)-Epinephrine hydrochloride],Z Score,[3],−0.3279
N=C(N)NOCC[C@H](N)C(=O)O.O=S(=O)(O)O [L-Canavanine sulfate],Z Score,,−0.9024
same,Z score,[4],−0.902
same,Activity,[5],no
CN(C)CCCC1(c2ccc(F)cc2)OCc2cc(C#N)ccc21 (stereo not shown) [Citalopram hydrobromide],Z Score,[7],−1.858
same,Z score,[4],−1.858
same,Activity,[5],no
CC(=O)[C@H]1CC[C@H]2[C@@H]3CCC4=CC(=O)CC[C@]4(C)[C@H]3CC[C@]12C [Progesterone],Z Score,[11],0.4252
same,Z score,[1],0.425
same,Activity,[6],no
CC(COc1ccc(/C=C/c2ccccc2)cc1)[N+](C)(C)C (stereo not shown),Z score,[1],−11.127
same,Activity,[10],yes
N#CC(C#N)=C(N)/C(C#N)=C/c1ccc(O)cc1 [Tyrphostin AG 112],Z Score,[11],0.3333
same,Z score,[1],0.333
same,Activity,[6],no
"O=C(O)[C@H]1C[C@H](C(=O)O)N1 (relative stereo) [trans-Azetidine-2,4-dicarboxylic acid]",Z Score,"168 h, 3 µM",−0.3491
same,Z score,"168 h, 3 µM",−0.349
same,Activity,[9],no
C1CCc2nnnn2CC1 [Pentylenetetrazole],Z Score,[3],−0.9274
same,Z score,[1],−0.927
same,Activity,[2],no
CNCCCC12CCC(c3ccccc31)c1ccccc12 [Maprotiline hydrochloride],Z Score,[3],−0.3615
same,Z score,[1],−0.361
same,Activity,[2],no
COCc1nc2c([nH]1)c(=O)n(C)c(=O)n2CC(C)C [8-Methoxymethyl-3-isobutyl-1-methylxanthine],Z Score,[3],−0.3403
same,Z score,[1],−0.340
same,Activity,[2],no
NC(=O)c1ccccc1 [Beuzamide],Z Score,,0.5498
CC1=NS(=O)(=O)c2cc(Cl)ccc2N1 [Diazoxide],Z Score,[11],0.04511
same,Z score,[4],0.045
same,Activity,[5],no
NC(CCCP(=O)(O)O)C(=O)O (racemic) [(±)-2-Amino-5-phosphonopentanoic acid],Z score,"168 h, 3 µM",−1.045
same,Activity,[9],no
Cl.NC1CCN(c2cccc(Cl)n2)CC1 [SR 57227A],Z Score,,−1.4
same,Z score,[1],−1.400
same,Activity,[6],no
NC(=O)CI [Iodoacetamide],Z Score,,−8.706
same,Z score,[1],−8.706
same,Activity,[10],yes
CCCN(CCC)C(=O)Cc1c(-c2ccc(Cl)cc2)nc2c(Cl)cc(Cl)cn12 [CB34],Z Score,,−1.081
same,Z score,[4],−1.081
same,Activity,[5],no
